Reference: paper PMC5684323 (2017)

How the values were obtained:
[1] = tested on: ESE2 RNA (NMR) (RNA, single strand) AAAAAGAAGGAAGG; assay: 1H NMR titration; conditions: 50 mM NaCl; 10 mM MES pH 5.5, 10% D2O, 310 K
[2] = tested on: ESE2 (SPR) (RNA, single strand) AAAAAGAAGGAAGG; assay: SPR (Biacore), immobilised RNA; conditions: 150 mM NaCl, no Mg2+ (35 mM EDTA); 10 mM HEPES pH 7.4, 0.05% P20, 0.1% DMSO, 25 °C; 10 µM tested
[3] = tested on: STRN3 "ESE" (RNA, single strand) AAGAAGGAACGAAAGGGGAAGAAAGGGG; assay: SPR (Biacore), immobilised RNA; conditions: 150 mM NaCl, no Mg2+ (35 mM EDTA); 10 mM HEPES pH 7.4, 0.05% P20, 0.1% DMSO, 25 °C; 10 µM tested
[4] = tested on: Exon 7 (RNA, mRNA element) UACAGGGUUUUAGACAAAAUCAAAAAGAAGGAAGGUGCUCACAUUCCUUAAAUUAAGGAGUAAG; assay: SPR (Biacore), immobilised RNA; conditions: 150 mM NaCl, no Mg2+ (35 mM EDTA); 10 mM HEPES pH 7.4, 0.05% P20, 0.1% DMSO, 25 °C; 10 µM tested

Row | binding [1] | binding [2] | binding [3] | binding [4] | SMILES
1 | yes | yes | yes | yes | Cc1cn2cc(-c3cc(=O)n4cc(N5CCN(C)CC5)ccc4n3)cc(F)c2n1
2 | yes | weak | weak |  | Cc1cn2cc(-c3cc(=O)n4cc(N5CCN(C(=O)CCN)CC5)ccc4n3)cc(F)c2n1
